Results on 1 compound are retold here after US20200371122A1, “BIOMARKER FOR SENESCENT CELLS” (Buck Institute for Research on Aging, priority 2017, published 2020).

The subject of data set [1] is IL-6 secretion in senescent cells. Kind of data set: IL-6 ELISA on conditioned media of IR-induced senescent cells treated with COX-2/ALOX5 inhibitors. It counts as cell-based, human. The note with it: SEN(IR) IMR-90, inhibitor for 10 days. The procedure:
(§1) Human fetal lung fibroblasts (IMR-90) were cultured in Dulbecco's modified eagle medium (DMEM) supplemented with 10% FBS and penicillin/streptomycin. LL 29 (AnHa) cells were obtained from the ATCC and growth to confluence using the ATCC protocol, but were subcultured as described for IMR-90 before initiation of all experiments. Quiescence was induced by replacing culture media with media containing 0.2% FBS. MCF-7 and MDA-MB-231 breast cancer cells were cultured in RPMI supplemented with 10% FBS and penicillin/streptomycin. All cells were cultured at 3% O2, and used between 25 and 40 population doublings. All cells were mycoplasma free.
Senescence was induced by irradiation with 10 Gy of ionizing radiation. Non-senescent controls (proliferating or quiescent) were placed in the irradiator for an identical period of time without turning on the irradiator. Oncogene-induced senescence was induced via lentiviral overexpression of HRAS^V12, as described previously (Wiley et al. (2016) Cell Metab. 23: 303-314).
3×10^4 cells in 12-well plates were treated as indicated in the text, and cultured in 0.5-1 ml serum-free DMEM for 24 hr. CM were collected and clarified at 2,000×g for 10 min. Supernatants were transferred to a tube; cells were trypsinized and counted. CM (2.5 μl) were analyzed by bead-based ELISAs (AlphaLISA, Perkin-Elmer) as instructed by the manufacturer and normalized to cell number.

The test system of a further data set is IMR-90 fibroblasts. It counts as cell-based, human. The procedure: as §1
RNA was extracted from cells or tissues using commercially available kits (Isolate II—Bioline for cells; Direct-zol—Zymo for tissues) according to the manufacturer's instructions. cDNA synthesis was performed using a High Capacity cDNA Reverse Transcription Kit (Thermo Fisher) according to the manufacturer's instructions. Quantitative PCR was performed on a LightCycler 480 II (Roche) using primers and probes designed for the Universal Probe Library. Primers and probes used for human transcripts were ACTB: 5′-CCAACCGCGAGAAGATGA (SEQ ID NO:1), 5′-TCCATCACGATGCCAGTG (SEQ ID NO:2), Probe #64; TUBA: 5′-cttcgtctccgccatcag (SEQ ID NO:3), 5′-ttgccaatctggacacca (SEQ ID NO:4), Probe #58; ALOX5: 5′-[…] (SEQ ID NO:5), 5′-[…] (SEQ ID NO:6), Probe #64; ALOX5AP: 5′-ggtctgcggggctacttt (SEQ ID NO:7), 5′-[…] (SEQ ID NO:8), Probe #18; ALOX12: 5′-[…] (SEQ ID NO:9), 5′-agccaggtcgtcaggag (SEQ ID NO:10), Probe #32; ALOX15: 5′-[…] (SEQ ID NO:11), 5′-[…] (SEQ ID NO:12), Probe #76; ALOX15B: 5′-[…] (SEQ ID NO:13), 5′-actgggaggcgaagaagg (SEQ ID NO:14), Probe #51; AKR1C1: 5′-catgcctgtcctgggattt (SEQ ID NO:15), 5′-[…] (SEQ ID NO:16), Probe #49; AKR1C2: 5′-ctatgcgcctgcagaggt (SEQ ID NO:17), 5′-[…] (SEQ ID NO:18), Probe #31; AKR1C3: 5′-[…] (SEQ ID NO:19), 5′-[…] (SEQ ID NO:20), Probe #78; CYSLTR2: 5′-[…] (SEQ ID NO:21), 5′-[…] (SEQ ID NO:22), Probe #18; DPEP1: 5′-gacgtcctgaggctggtg (SEQ ID NO:23), 5′-[…] (SEQ ID NO:24), Probe #9 (SEQ ID NO:25), ELOVL2: 5′-[…] (SEQ ID NO:26), 5′-[…] (SEQ ID NO:27), Probe #53; ELOVL4: 5′-catttggcccatggattc (SEQ ID NO:28), 5′-[…] (SEQ ID NO:29), Probe #31; ELOVL5: 5′-cccttccatgcgtccata (SEQ ID NO:30), 5′-[…] (SEQ ID NO:31), Probe #31; EPHX2: 5′-ttctgctggacaccctgaa (SEQ ID NO:32), 5′-[…] (SEQ ID NO:33), Probe #45; GPX4: 5′-ttcccgtgtaaccagttcg (SEQ ID NO:34), 5′-[…] (SEQ ID NO:35), Probe #36; LTA4H: 5′-ctgctctcacggtccagtc (SEQ ID NO:36), 5′-[…] (SEQ ID NO:37), Probe #64; LTBR2: 5′-[…] (SEQ ID NO:38), 5′-[…] (SEQ ID NO:39), Probe #33; LTC4S: 5′-[…] (SEQ ID NO:40), 5′-[…] (SEQ ID NO:41), Probe #18; PTGDS: 5′-[…] (SEQ ID NO:42), 5′-[…] (SEQ ID NO:43), Probe #36; PTGES: 5′-agagatgcctgcccacag (SEQ ID NO:44), 5′-tggccaccacgtacatctt (SEQ ID NO:45), Probe #4; PTGES2: 5′-[…] (SEQ ID NO:46), 5′-[…] (SEQ ID NO:47), Probe #49; PTGES3 (SEQ ID NO:48), 5′-[…] (SEQ ID NO:49), 5′-[…] (SEQ ID NO:50), Probe #48; PTGIS: 5′-[…] (SEQ ID NO:51), 5′-[…] (SEQ ID NO:52), Probe #45; PTGR1: 5′-atgatggggcagcaagtg (SEQ ID NO:53), 5′-cccatcagaaatggagtgc (SEQ ID NO:54), Probe #64; PTGS1: 5′-[…] (SEQ ID NO:55), 5′-gtggtggtccatgttcctg (SEQ ID NO:56), Probe #81; PTGS2: 5′-gatccccagggctcaaac (SEQ ID NO:57), 5′-[…] (SEQ ID NO:58), Probe #61; TBXAS1: 5′-[…] (SEQ ID NO:59), 5′-tgcctcccgtgtgaatct (SEQ ID NO:60), Probe #73; AREG: 5′-[…] (SEQ ID NO:61), 5′-[…] (SEQ ID NO:62), Probe #73; CCL2: 5′-AGTCTCTGCCGCCCTTCT (SEQ ID NO:63), 5′-GTGACTGGGGCATTGATTG (SEQ ID NO:64), Probe #40; CCL27: 5′-[…] (SEQ ID NO:65), 5′-gctgggtggcagtaggaat (SEQ ID NO:66), Probe #18; CXCL1: 5′-[…] (SEQ ID NO:67), 5′-[…] (SEQ ID NO:68), Probe #52; HGF: 5′-[…] (SEQ ID NO:69), 5′-[…]

As for `CC(/C=C/c1cccc(Oc2ccc(F)cc2)c1)N(O)C(N)=O` (centres unmarked) [BW-B70C], the “lowered IL-6 secretion in senescent cells” value in data set [1] was approximately 50%. Further, in the data set on IMR-90 fibroblasts, the “growth of non-senescent cells” value is on record as “retarded growth”.
